Columns and labels:
[1] = Removal test of heavy metals of active ingredients (pig skin, ICP-MS): Pb; details: contaminated pig skin
Protocol: (§1) (1) Preparation of Heavy Metal Contamination Sources and Pig Skin Samples
(§2) A pig was slaughtered, flayed and the bristle was shaved. The pig skin was cut to prepare 5*5 cm size of skin samples respectively.
(§3) The said skin samples were cleanly wiped with wet gauze, and then, added to 50 ml of methanol and extracted by shaking with ultrasonic for 60 min. 50 ml of methanol was further added and mixed. The pig skin samples were removed from the extracted solutions to prepare the test solutions.
(§4) The test solutions were analyzed for heavy metal components using an inductively coupled plasma mass spectrometer (ICP-MS, Xseries™ 2, Thermo Fisher Scientific, UK).

[2] = Removal test of heavy metals of active ingredients (pig skin, ICP-MS): Cd; details: contaminated pig skin
Protocol: as §1, §2, §3, §4

[3] = Removal test of heavy metals of active ingredients (pig skin, ICP-MS): Cu; details: contaminated pig skin
Protocol: as §1, §2, §3, §4

human skin = assay: Skin irritation test of active ingredient (patch method, CTFA guidelines); type: in vivo; parameters: key to Degree of irritation: 0–0.1 none, 0.11–0.3 weak, 0.31–0.5 moderate, ≥0.51 strong irritation; details: 20 people, patch 24 hours; for Test result(number of subject) (+): (+): Apparent reddening than periphery; for Test result(number of subject) (++): (++): More reddened and swollen than periphery; for Test result(number of subject) (±): (±): slightly reddish than the periphery; for Test result(number of subject) (−): (−): No erythema or particularly no symptoms
Protocol: A total of 20 people (10 men and 10 women in their 20 s and 30 s) were tested for skin irritation using the patch method according to the guidelines of CTFA (The Cosmetic, Toiletry & Fragrance Association, Inc. Washington, D.C.).
A filter paper disk was placed in an 8 mm diameter, 10 panels of pin chamber.
After 24 hours, the pin chamber was removed, and skin conditions were visually observed.
[Criteria for Skin Irritation]
(−): No erythema or particularly no symptoms; (±): slightly reddish than the periphery; (+): Apparent reddening than periphery; (++): More reddened and swollen than periphery.
[Grade for Skin Irritation]
Degree of irritation 0-0.1: Grade I (unstimulated);
Degree of irritation 0.11-0.3: Grade II (weakly stimulated);
Degree of irritation 0.31-0.5: Grade III (moderately stimulated);
Degree of irritation 0.51 or more: Grade IV (strongly stimulated)

[4] = Formaldehyde removing ability test (GC); details: 2.0% formaldehyde solution; for Area (mAU*min) 30 min: formaldehyde GC area after 30 min; for Area (mAU*min) 30 min / Area (mAU*min) 180 min: 3 molar equivalents, room temperature; for Area (mAU*min) 180 min: formaldehyde GC area after 180 min; for Area (mAU*min) Initial: formaldehyde GC area, initial state, 3 molar equivalents of compound

Row | SMILES | Removal of Heavy metals Pb (%) ([1]; 0.1 wt % aqueous solution) | Removal of Heavy metals Pb (%) ([1]; 0.5 wt % aqueous solution) | Removal of Heavy metals Pb (%) ([1]; 1.0 wt % aqueous solution) | Removal of Heavy metals Cd (%) ([2]; 0.1 wt % aqueous solution) | Removal of Heavy metals Cd (%) ([2]; 0.5 wt % aqueous solution) | Removal of Heavy metals Cd (%) ([2]; 1.0 wt % aqueous solution) | Removal of Heavy metals Cu (%) ([3]; 0.1 wt % aqueous solution) | Removal of Heavy metals Cu (%) ([3]; 0.5 wt % aqueous solution) | Removal of Heavy metals Cu (%) ([3]; 1.0 wt % aqueous solution) | Degree of irritation (human skin; 0.1 wt %) | Grade (human skin; 0.1 wt %) | Test result(number of subject) (+) (human skin; 0.1 wt %) | Test result(number of subject) (++) (human skin; 0.1 wt %) | Test result(number of subject) (±) (human skin; 0.1 wt %) | Test result(number of subject) (−) (human skin; 0.1 wt %) | Degree of irritation (human skin; 0.5 wt %) | Grade (human skin; 0.5 wt %) | Test result(number of subject) (+) (human skin; 0.5 wt %) | Test result(number of subject) (++) (human skin; 0.5 wt %) | Test result(number of subject) (±) (human skin; 0.5 wt %) | other results
1 | O=C(O)c1ccc(N2CCCN(c3ccc(C(=O)O)cc3)CCN(c3ccc(C(=O)O)cc3)CCCN(c3ccc(C(=O)O)cc3)CC2)cc1 [Embodiment 10, 4,4′,4″,4′″-(1,4,8,11-tetraazacyclotetradecane-1,4,8,11-tetrayl)tetrabenzoic acid] | 88.3% | 90.5% | 90.9% | 85.7% | 90.4% | 91.1% | 94.1% | 96.0% | 96.5% | 0 | I (Degree of irritation 0-0.1: Grade I (unstimulated)) | 0 | 0 | 0 | 20 | 0 | I (Degree of irritation 0-0.1: Grade I (unstimulated)) | 0 | 0 | 0 | Test result(number of subject) (−) (human skin; 0.5 wt %): 20; Degree of irritation (human skin; 1.0 wt %): 0.05; Grade (human skin; 1.0 wt %): I (Degree of irritation 0-0.1: Grade I (unstimulated)); Test result(number of subject) (+) (human skin; 1.0 wt %): 0; Test result(number of subject) (++) (human skin; 1.0 wt %): 0; Test result(number of subject) (±) (human skin; 1.0 wt %): 1; Test result(number of subject) (−) (human skin; 1.0 wt %): 19; Area (mAU*min) 30 min [4]: 0.171 mAU*min; Area (mAU*min) 180 min [4]: 0 mAU*min; Area (mAU*min) Initial [4]: 0.305 mAU*min
2 | O=C(O)c1cncc(N2CCCN(c3cncc(C(=O)O)c3)CCN(c3cncc(C(=O)O)c3)CCCN(c3cncc(C(=O)O)c3)CC2)c1 [Embodiment 11, 5,5′,5″,5′″-(1,4,8,11-tetraazacyclotetradecane-1,4,8,11-tetrayl)tetranicotinic acid] | 87.9% | 89.2% | 91.2% | 86.7% | 88.9% | 91.0% | 93.8% | 96.0% | 96.8% | 0 | I (Degree of irritation 0-0.1: Grade I (unstimulated)) | 0 | 0 | 0 | 20 | 0 | I (Degree of irritation 0-0.1: Grade I (unstimulated)) | 0 | 0 | 0 | Test result(number of subject) (−) (human skin; 0.5 wt %): 20; Degree of irritation (human skin; 1.0 wt %): 0.10; Grade (human skin; 1.0 wt %): I (Degree of irritation 0-0.1: Grade I (unstimulated)); Test result(number of subject) (+) (human skin; 1.0 wt %): 0; Test result(number of subject) (++) (human skin; 1.0 wt %): 0; Test result(number of subject) (±) (human skin; 1.0 wt %): 2; Test result(number of subject) (−) (human skin; 1.0 wt %): 18; Area (mAU*min) 30 min [4]: 0.174 mAU*min; Area (mAU*min) 180 min [4]: 0 mAU*min; Area (mAU*min) Initial [4]: 0.305 mAU*min
3 | O=C(O)c1ccc(N2CCCN(c3ccc(C(=O)O)o3)CCN(c3ccc(C(=O)O)o3)CCCN(c3ccc(C(=O)O)o3)CC2)o1 [Embodiment 12, 5,5′,5″,5′″-(1,4,8,11-tetraazacyclotetradecane-1,4,8,11-tetrayl)tetrakis(furan-2-carboxylic acid)] | 89.1% | 90.9% | 91.3% | 90.1% | 90.7% | 90.9% | 94.5% | 95.8% | 96.3% | 0 | I (Degree of irritation 0-0.1: Grade I (unstimulated)) | 0 | 0 | 0 | 20 | 0 | I (Degree of irritation 0-0.1: Grade I (unstimulated)) | 0 | 0 | 0 | Test result(number of subject) (−) (human skin; 0.5 wt %): 20; Degree of irritation (human skin; 1.0 wt %): 0.05; Grade (human skin; 1.0 wt %): I (Degree of irritation 0-0.1: Grade I (unstimulated)); Test result(number of subject) (+) (human skin; 1.0 wt %): 0; Test result(number of subject) (++) (human skin; 1.0 wt %): 0; Test result(number of subject) (±) (human skin; 1.0 wt %): 1; Test result(number of subject) (−) (human skin; 1.0 wt %): 19; Area (mAU*min) 30 min [4]: 0.170 mAU*min; Area (mAU*min) 180 min [4]: 0 mAU*min; Area (mAU*min) Initial [4]: 0.305 mAU*min
4 | NCCNCCNCCN [Trientine, Triethylenetetramine, reference compound] | 89.7% | 92.1% | 92.3% | 87.3% | 92.4% | 92.3% | 92.6% | 95.4% | 96.0% | 0 | I (Degree of irritation 0-0.1: Grade I (unstimulated)) | 0 | 0 | 0 | 20 | 0.05 | I (Degree of irritation 0-0.1: Grade I (unstimulated)) | 0 | 0 | 1 | Test result(number of subject) (−) (human skin; 0.5 wt %): 19; Degree of irritation (human skin; 1.0 wt %): 0.15; Grade (human skin; 1.0 wt %): II (Degree of irritation 0.11-0.3: Grade II (weakly stimulated)); Test result(number of subject) (+) (human skin; 1.0 wt %): 0; Test result(number of subject) (++) (human skin; 1.0 wt %): 0; Test result(number of subject) (±) (human skin; 1.0 wt %): 3; Test result(number of subject) (−) (human skin; 1.0 wt %): 17; Area (mAU*min) 30 min [4]: 0.168 mAU*min; Area (mAU*min) 180 min [4]: 0 mAU*min; Area (mAU*min) Initial [4]: 0.305 mAU*min
